# Source: patent US20260165954A1, “BIO[…]-AND-RESERVOIR SYSTEM FOR THE PULSED DELIVERY OF BIOACTIVE AGENTS” (University of Mississippi, priority 2022, published 2026)
# What was measured:
# [1] = Pharmacokinetics of DOI from subcutaneously implanted multilayered CAPP films; type: in vivo; conditions: subcutaneous multilayered CAPP films, CD-1 mice
# Description: (§1) FIGS. 12A-12G show in vivo delivery of 5HT2A agonist DOI from single- and multi-layer CAPP films. (FIG. 12A) In vitro cumulative release of DOI from 0.1 mm CAPP films. (FIG. 12B) Scheme of subcutaneous implantation of 0.1 mm DOI-loaded CAPP films and experimental time course. Pharmacokinetics of DOI released from subcutaneously implanted, single-layered CAPP films in (FIG. 12C) plasma (n=4) and (FIG. 12D) brain (n=4). (FIG. 12E) Scheme of subcutaneous implantation of multilayered CAPP films and experimental time course. Pharmacokinetics of DOI released from multilayered CAPP films in (FIG. 12F) plasma (n=4), and (FIG. 12G) brain (n=4).
# (§2) To confirm that 5HT2A agonists could be effectively delivered in vivo from an implantable drug delivery system, the encapsulation and release of DOI (2,5-dimethoxy-4-iodoamphetamine) from CAPP films was investigated. DOI release was first observed from single-layered CAPP films. […] The DOI-loaded, single-layered films were next implanted subcutaneously in CD-1 mice (50:50 M:F mice) and monitored the pharmacokinetics and biodistribution of DOI after implantation (FIGS. 12B-12D). […] After this initial optimization, multilayered CAPP films with DOI encapsulated in the ‘release’ layers were generated and implanted them subcutaneously in CD-1 mice (50:50 M:F mice; FIG. 12E). […]
# [2] = In vitro release of DOI from single-layered CAPP films; type: physicochemical; conditions: 0.1 mm single-layered CAPP films; FIG. 12A
# Description: as §1, §2
# [3] = Pharmacokinetics of DOI from subcutaneously implanted single-layered CAPP films; type: in vivo; conditions: CD-1 mice
# Description: as §1, §2
smiles,measurement,setting,value
"COc1cc(CC(C)N)c(OC)cc1I (centres unmarked) [DOI, 2,5-dimethoxy-4-iodoamphetamine]",absorption and tissue accumulation from the first 'release' layer,[1],rapid absorption of DOI and accumulation in the brain (as well as kidneys and liver)
same,time of second pulse in plasma and organs after the first pulse,[1]; FIGS. 12F-12G,~20 h
same,in vitro release kinetics,[2],closely mimicked that of rhodamine and FITC
same,time of peak plasma concentration post-implantation,"[3]; subcutaneous 0.1 mm DOI-loaded single-layered CAPP films, plasma, FIG. 12C",2 h
same,brain distribution and clearance,"[3]; subcutaneous single-layered CAPP films, brain, FIG. 12D",rapidly accumulated in the brain after which it was cleared with similar kinetics to the blood plasma
